From patent publication US20240368106A1, “HYDROXY AND ALKOXY COUMARINS AS MODULATORS OF POLRMT” (Pretzel Therapeutics, Inc., priority 2021, published 2024)

Target: POLRMT (Homo sapiens (Human), UniProt O00411)
Test: homogeneous TR-FRET assay of mitochondrial transcription (inhibition of POLRMT)
Assay type: biochemical
Details: 7.5 nM POLRMT, 15 nM TFB2M, 30 nM TFAM, 0.5 nM DNA template, 500 μM NTPs, 37° C., 60 minutes
Protocol: The inhibitory activity of the compounds of the present invention against POLRMT were determined by assays based on Bergbrede, T., et al., “An adaptable high-throughput technology enabling the identification of specific transcription modulators,” SLAC Discov., 22, 378-386 (2017).
The ability of some compounds of the present invention to inhibit POLRMT were determined in a homogeneous TR-FRET Assay using high-throughput screening in a 384-well plate format. This method is used to monitor the activity of mitochondrial transcription through measurement of its product, a 407 bp long RNA transcript. Detection of the product is facilitated by hybridization of two DNA-oligonucleotide probes to specific and adjacent sequences within the RNA product sequence. Upon annealing of the probes, two fluorophores are coupled directly to an acceptor nucleotide probe (ATT0647, 5′), or introduced via a coupled streptavidin with a biotinylated donor nucleotide probe (Europium cryptate) that is brought into sufficient proximity to serve as a fluorescence-donor-acceptor pair. Thus, a FRET signal at 665 nm is generated upon excitation at 340 nm.
Proteins used as transcription factors (POLRMT: NP_005026.3, TFAM: NP_003192.1, TFB2M: NP_071761.1) are diluted from their stocks to working concentrations of 1 μM, 20 μM and 4 μM respectively, in a dilution buffer containing 20 mM Tris-HCl (pH 8.0), 200 mM NaCl, 10% (v/v) glycerol, 1 mM Dithiothreitol (DTT), 0.5 mM EDTA.
DNA template is a pUC18 plasmid with the mitochondrial light strand promotor sequence (1-477) cloned between HindIII and BamHI sites. The DNA template is restriction linearized proximal to the promotor 3′-end (pUC-LSP). The reaction mixture (10 uL) containing 7.5 nM POLRMT, 15 nM of TFB2M, 30 nM of TFAM, 0.5 nM of DNA template and 500 μM nucleotide triphosphate mix (NTPs) in a reaction buffer (containing 10 mM Tris-HCl (pH 7.5), 10 mM MgCl2, 40 mM NaCl, 10 mM DTT, 0.005% (w/v) Tween-20, 160 units/ml Rnase inhibitor and 0.1 mg/mL BSA) are dispensed to compounds in microplates, using a Thermo Multidrop® dispenser, and incubated at 37° C. in a VWR INCU-Line incubator for 60 minutes after mixing. No nucleotide triphosphate mix is added to negative control samples. Microplates with compounds to be tested in the assay are prepared from 10 mM compound stocks in 100% DMSO, equal amounts of DMSO without any compound are added to positive control and negative control samples.
During the incubation, a mix of the detection reagents is prepared in a buffer such that the enzymatic reaction is terminated due to chelating of Mg-ions and increased ionic strength, containing 50 mM Tris-HCl (pH 7.5), 700 mM NaCl, 20 mM EDTA, and 0.010% (w/v) Tween-20. Europium-streptavidin is pre-incubated with a 200-fold molar excess of a random sequence oligonucleotide to block unspecific binding of oligo, for two hours at ambient temperature in the dark. Afterwards, the blocked Europium-streptavidin is kept on ice until use.
At the end of the enzymatic reaction time, 5 μL detection oligo mix in the detection buffer is added, and assay plates are mixed and kept at ambient temperature for one hour, protected from light. The concentration of the Acceptor nucleotide oligo (e.g., ATTO647N-5′-[…]-3′) and Donor nucleotide oligo (e.g., bio-5′-AACACATCTCT(-bio)GCCAAACCCCA-bio-3′) in each assay well is 1 nM, and 3 nM, respectively.
After incubation with oligo mix, 5 μL of pre-blocked Europium-streptavidin reagent is dispensed to each assay well, assay plates are again mixed and kept at ambient temperature for one hour, protected from light.
The generated signal is measured with BMG Pherastar microtiter plate reader with a TRF light unit, using excitation at 340 nm, an integration time of 200 μs, and a delay time of 100 μs, before detection at 620 nm and 665 nm. The ratio of donor- and acceptor-fluorescence is used as a measure of the generated transcript product (i.e. enzymatic activity).

POLRMT, sequence (O00411 42-1230): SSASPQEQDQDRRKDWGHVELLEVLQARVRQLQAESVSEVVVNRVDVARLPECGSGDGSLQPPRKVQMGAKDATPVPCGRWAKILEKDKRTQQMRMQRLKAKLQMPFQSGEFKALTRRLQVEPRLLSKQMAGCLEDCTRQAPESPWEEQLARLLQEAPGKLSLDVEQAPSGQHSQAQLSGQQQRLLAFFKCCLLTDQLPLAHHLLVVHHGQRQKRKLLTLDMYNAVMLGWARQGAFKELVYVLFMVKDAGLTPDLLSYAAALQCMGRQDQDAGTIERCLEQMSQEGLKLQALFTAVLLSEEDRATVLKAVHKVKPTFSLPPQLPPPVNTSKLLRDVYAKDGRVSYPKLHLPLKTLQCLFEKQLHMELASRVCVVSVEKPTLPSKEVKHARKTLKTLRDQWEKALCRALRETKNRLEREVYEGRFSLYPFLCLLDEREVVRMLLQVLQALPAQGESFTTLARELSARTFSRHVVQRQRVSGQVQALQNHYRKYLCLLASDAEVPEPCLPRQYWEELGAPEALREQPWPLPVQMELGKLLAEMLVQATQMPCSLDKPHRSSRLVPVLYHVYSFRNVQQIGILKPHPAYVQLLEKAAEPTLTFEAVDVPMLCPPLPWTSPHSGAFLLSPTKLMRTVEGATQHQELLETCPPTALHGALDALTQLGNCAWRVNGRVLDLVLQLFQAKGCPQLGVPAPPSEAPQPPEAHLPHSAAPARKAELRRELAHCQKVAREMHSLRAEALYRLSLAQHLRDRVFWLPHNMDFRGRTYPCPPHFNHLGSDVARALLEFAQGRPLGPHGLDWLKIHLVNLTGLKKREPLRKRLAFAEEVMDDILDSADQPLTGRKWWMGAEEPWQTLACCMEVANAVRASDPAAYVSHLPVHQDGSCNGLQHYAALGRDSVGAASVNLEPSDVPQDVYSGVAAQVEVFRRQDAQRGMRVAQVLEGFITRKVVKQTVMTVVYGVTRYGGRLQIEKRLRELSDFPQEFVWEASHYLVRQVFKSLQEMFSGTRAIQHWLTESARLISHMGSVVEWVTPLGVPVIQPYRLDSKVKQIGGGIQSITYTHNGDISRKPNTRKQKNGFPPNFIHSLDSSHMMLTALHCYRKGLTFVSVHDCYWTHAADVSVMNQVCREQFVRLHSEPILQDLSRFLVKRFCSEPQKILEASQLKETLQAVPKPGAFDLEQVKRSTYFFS

| SMILES | IC50 |
| --- | --- |
| CNC(=O)C(COC)Oc1ccc2c(-c3ccccc3Cl)cc(=O)oc2c1 (single isomer, unassigned) [Example 91, 2-((4-(2-chlorophenyl)-2-oxo-2H-chromen-7-yl)oxy)-3-methoxy-N-methylpropanamide] | 14 µM |
| CNC(=O)C(COC)Oc1ccc2c(-c3ccccc3Cl)cc(=O)oc2c1 (single isomer, unassigned) [Example 92, 2-((4-(2-chlorophenyl)-2-oxo-2H-chromen-7-yl)oxy)-3-methoxy-N-methylpropanamide] | 0.4 µM |
| COCC(Oc1ccc2c(-c3ccccc3Cl)cc(=O)oc2c1)C(=O)N(C)C (single isomer, unassigned) [Example 93, 2-((4-(2-chlorophenyl)-2-oxo-2H-chromen-7-yl)oxy)-3-methoxy-N,N-dimethylpropanamide] | 18 µM |
| COCC(Oc1ccc2c(-c3ccccc3Cl)cc(=O)oc2c1)C(=O)N(C)C (single isomer, unassigned) [Example 94, 2-((4-(2-chlorophenyl)-2-oxo-2H-chromen-7-yl)oxy)-3-methoxy-N,N-dimethylpropanamide] | 0.09 µM |
| COCC(Oc1ccc2c(-c3ccccc3Cl)cc(=O)oc2c1)C(N)=O (single isomer, unassigned) [Example 95, 2-((4-(2-chlorophenyl)-2-oxo-2H-chromen-7-yl)oxy)-3-methoxypropanamide] | 14 µM |
| COCC(Oc1ccc2c(-c3ccccc3Cl)cc(=O)oc2c1)C(N)=O (single isomer, unassigned) [Example 96, 2-((4-(2-chlorophenyl)-2-oxo-2H-chromen-7-yl)oxy)-3-methoxypropanamide] | 0.5 µM |
| CNC(=O)C(CO)Oc1ccc2c(-c3ccccc3C)cc(=O)oc2c1 (single isomer, unassigned) [Example 97, 3-hydroxy-N-methyl-2-[4-(o-tolyl)-2-oxo-chromen-7-yl]oxy-propanamide] | 5 µM |
| CNC(=O)C(CO)Oc1ccc2c(-c3ccccc3C)cc(=O)oc2c1 (single isomer, unassigned) [Example 98, 3-hydroxy-N-methyl-2-[4-(o-tolyl)-2-oxo-chromen-7-yl]oxy-propanamide] | > 100 µM |
| Cc1ccccc1-c1cc(=O)oc2cc(O)ccc12 [Example 01, 7-hydroxy-4-(o-tolyl)-2H-chromen-2-one] | 3 µM |
| CCCOc1ccc2c(-c3ccccc3C)cc(=O)oc2c1 [Example 02, 7-propoxy-4-(o-tolyl)-2H-chromen-2-one] | 0.09 µM |
| Cc1ccccc1-c1cc(=O)oc2cc(OCCO)ccc12 [Example 03, 7-(2-hydroxyethoxy)-4-(o-tolyl)-2H-chromen-2-one] | 2 µM |
| COc1ccc2c(-c3ccccc3C)cc(=O)oc2c1 [Example 04, 7-methoxy-4-(o-tolyl)-2H-chromen-2-one] | 2 µM |
| Cc1ccccc1-c1cc(=O)oc2cc(OC(C)C)ccc12 [Example 05, 7-isopropoxy-4-(o-tolyl)-2H-chromen-2-one] | 0.1 µM |
| Cc1ccccc1-c1cc(=O)oc2cc(Oc3ccccc3)ccc12 [Example 06, 7-phenoxy-4-(o-tolyl)-2H-chromen-2-one] | 0.6 µM |
| Cc1ccccc1-c1cc(=O)oc2cc(OCCc3ccccc3)ccc12 [Example 07, 7-phenethoxy-4-(o-tolyl)-2H-chromen-2-one] | 4 µM |
| Cc1ccccc1-c1cc(=O)oc2cc(OCCN(C)C)ccc12 [Example 08, 7-(2-(dimethylamino)ethoxy)-4-(o-tolyl)-2H-chromen-2-one] | 94 µM |
| COCCOc1ccc2c(-c3ccccc3C)cc(=O)oc2c1 [Example 09, 7-(2-methoxyethoxy)-4-(o-tolyl)-2H-chromen-2-one] | 0.9 µM |
| CNC(=O)CCOc1ccc2c(-c3ccccc3C)cc(=O)oc2c1 [Example 12, N-methyl-3-((2-oxo-4-(o-tolyl)-2H-chromen-7-yl)oxy)propanamide] | 7 µM |
| O=c1cc(-c2ccc(F)cc2Cl)c2ccc(O)cc2o1 [Example 13, 4-(2-chloro-4-fluorophenyl)-7-hydroxy-2H-chromen-2-one] | 3 µM |
